Test results taken from patent publication US20100152274A1, “CRYSTALLINE FORMS OF ATORVASTATIN 4-(NITROOXY) BUTYL ESTER” (Nicox S.A., priority 2007, published 2010).
Entries after “also recorded” stand apart in the source; their conditions may differ.

Experiments:
Type in all cases: physicochemical
[1] = Stability at 40° C. and 75% of relative humidity, open vials, monitored by Raman spectroscopy and PXRD; details: for Stability in the reported conditions (heat and humidity): 40° C. and 75% r.h., summary statement; for RESULTING FORM: Storage at 40° C. and 75% r.h., 28 d.; for Change of solid form by PXRD and Raman: open vials, 40° C., 75% relative humidity, after one and four weeks
Experimental: Stability at 40° C. and 75% of relative humidity of atorvastatin 4-(nitrooxy)butyl ester A and form B in comparison with the amorphous form was assessed. Atorvastatin 4-(nitrooxy)butyl ester form A, form B and amorphous were stored in open vials for one month at 40° C. and in presence of 75% of relative humidity, and the samples were monitored by Raman spectroscopy and by PXRD after one and four weeks.

[2] = General stability statements (humidity, water, organic solvents, heat); details: no test details
[3] = Stability of amorphous form in aqueous suspension at room temperature, monitored by Raman spectroscopy and PXRD; details: for RESULTING FORM: Suspension in H2O, rt
Experimental: Stability of amorphous atorvastatin 4-(nitrooxy)butyl ester in aqueous suspension was assessed. Amorphous atorvastatin 4-(nitrooxy)butyl ester was suspended in water at room temperature while stirring and monitored by Raman spectroscopy after one, seven and twenty-eight days.

CC(C)c1c(C(=O)Nc2ccccc2)c(-c2ccccc2)c(-c2ccc(F)cc2)n1CC[C@@H](O)C[C@@H](O)CC(=O)OCCCCO[N+](=O)[O-] [Form A, (βR,δR)-2(4-fluorophenyl)-β,δ-dihydroxy-5-(1-methylethyl)-3-phenyl-4-[(phenylamino)carbon-yl]-1H-pyrrole-1-heptanoic acid 4-(nitrooxy)butyl ester]
Stability in the reported conditions (heat and humidity) [1]: stable in the reported conditions for at least four weeks
RESULTING FORM [1]: Form A
Change of solid form by PXRD and Raman [1]: no differences in the solid form
Stability (general statement) [2]: good stability in water, in organic solvents, and when exposed to heat and humidity

CC(C)c1c(C(=O)Nc2ccccc2)c(-c2ccccc2)c(-c2ccc(F)cc2)n1CC[C@@H](O)C[C@@H](O)CC(=O)OCCCCO[N+](=O)[O-] [Form B, (βR,δR)-2(4-fluorophenyl)-β,δ-dihydroxy-5-(1-methylethyl)-3-phenyl-4-[(phenylamino)carbon-yl]-1H-pyrrole-1-heptanoic acid 4-(nitrooxy)butyl ester]
Stability in the reported conditions (heat and humidity) [1]: stable in the reported conditions for at least four weeks
RESULTING FORM [1]: Form B
Change of solid form by PXRD and Raman [1]: no differences in the solid form
Stability (general statement) [2]: good stability in water, in organic solvents, and when exposed to heat and humidity

CC(C)c1c(C(=O)Nc2ccccc2)c(-c2ccccc2)c(-c2ccc(F)cc2)n1CC[C@@H](O)C[C@@H](O)CC(=O)OCCCCO[N+](=O)[O-] [Amorphous, atorvastatin 4-(nitrooxy)butyl ester]
Stability in the reported conditions (heat and humidity) ([1]; listed as Amorphous form): not stable, showing rapid conversion to form B
Change of solid form by PXRD and Raman ([1]; listed as amorphous atorvastatin 4-(nitrooxy)butyl ester): converts to form B
RESULTING FORM ([3]; 1 d.): Amorphous
RESULTING FORM ([3]; 1 d., listed as Amorphous atorvastatin 4-(nitrooxy)butyl ester): pure amorphous
RESULTING FORM ([3]; 7 d.): Amorphous (+B)
RESULTING FORM ([3]; 7 d., listed as Amorphous atorvastatin 4-(nitrooxy)butyl ester): detectable amount of form B was observed; also recorded: start of crystallization of form B
RESULTING FORM ([3]; 28 d.): Amorphous + B
RESULTING FORM ([3]; 28 d., listed as Amorphous atorvastatin 4-(nitrooxy)butyl ester): mixture of amorphous form and form B
Stability in aqueous suspension ([3]; room temperature, summary statement): not stable in aqueous suspension at room temperature
Stability (general statement) ([2]; listed as amorphous form of Atorvastatin 4-(nitrooxy)butyl ester): unstable at humidity conditions, in organic solvents and in stressed thermal conditions
